# Reference: patent publication US9480695B2, “Methods for inducing orexin neurons and agent for treating narcolepsy or eating disorder” (THE UNIVERSITY OF TOKYO, priority 2011, dated 2016)
# Columns and labels:
# Assay type in all cases: cell-based
# [1] = tested on: endbrain-derived neurosphere (NSph); assay: Orexin inducing action on mouse fetus-derived neurosphere (NSph), RT-PCR; details: 1 mM from initiation of NSph culture, 6 days plus 10 days differentiation; FIG. 7
# Procedure: A culture and differentiation induction experiment was performed based on the method of Ciccolini and Svendsen (1998, J Neurosci. 18(19): 7869-80). An endbrain was removed from a C57BL/6N mouse fetus having an embryonic age of 14.5 days in ice-cold PBS/0.6% glucose. Dispersion into a single cell was performed by pipetting, and cells were suspended in a medium for NSph [DMEM/F12 (Wako) containing 1×B27 (Invitrogen), 20 ng/ml EGF (Sigma), 20 ng/ml FGF-basic (PEPROTECH), 5 μg/ml heparin (Sigma)] and seeded on a 10 cm petri dish in an amount of 2×10^6 cells/10 ml. Half the amount of the medium was exchanged 3 days after initiation of culturing, and culturing was performed for another 3 days (total 6 days).
# NSph was recovered 6 days after initiation of culturing, and cells were dispersed by pipetting in PBS/0.6% glucose. Cells were collected by centrifugation and suspended in a medium for differentiation induction (not containing EGF, FGF-basic and heparin of a medium for NSph). Cells were seeded in an amount of 4.5×10^5 cells/7.5 ml on a 6 cm dish which had been coated with poly-L-lysine/laminin (both Sigma) in advance, and differentiation was induced. Half the amount of the medium was exchanged 5 days after initiation of differentiation induction, and culturing was performed for another 5 days (total 10 days). […]
# [2] = tested on: Mouse ES cells (J1 strain); assay: Hcrt expression with ManNAc plus Sirt inhibitor or Ogt inhibitor, neural differentiation from mouse ES cell, RT-PCR; details: ManNAc 1.0 mM from 0th day, BADGP 1 mM or 5 mM on 7th day, collected 10th day; FIG. 9
# Procedure: According to the same manner as that described in Example 1, mouse ES cells (J1 strain) were cultured for 10 days for differentiation induction into a nerve cell. A protocol of inducing differentiation into a nerve cell is shown in the upper column of FIG. 11. From the initiation of differentiation culturing (0th day), ManNAc was added to a neural differentiation medium so that the concentration became 1.0 mM, and the medium was exchanged on 4th and 7th days of differentiation culturing. In addition, from 4th day of differentiation culturing, 5 nM recombinant human BMP4 (Wako) was added. On 7th day of differentiation culturing, EX-527 (SIGMA-ALDRICH) was added to a neural differentiation medium so that the concentration became 50 nM or BADGP (SIGMA-ALDRICH) was added to a neural differentiation medium so that the concentration became 1 or 5 mM, and on 10th day of differentiation culturing, cells were collected and subjected to RT-PCR. The conditions of RT-PCR are the same as those of Example 1.
# [3] = tested on: human iPS cell strain 201B7; assay: Orexin-positive cells in neurally differentiated colony induced from human iPS cell, immunostaining; details: differentiation as in Example 5; anti-human orexin antibody fluorescence
# Procedure: Cells which had been differentiation-induced on a 4-well culture plate by the method described in Example 5 were fixed with a 4% paraformalin solution, and cellular membrane permeability treatment was performed with a 0.2% Triton-X100 solution. The cells were treated with a 5% bovine serum albumin solution, followed by treatment with a primary antibody (anti-human orexin antibody, anti-human tubulin III antibody) at 4° C. overnight. After a reaction with a secondary labeled antibody (Alex-Fluor 488-labeled donkey anti-goat antibody, Alexa-Fluor 594-labeled rabbit anti-mouse antibody), a nuclear DNA was stained with DAPI.
smiles,measurement,setting,value
"CC(=O)N[C@@H]1C(O)O[C@H](CO)[C@@H](O)[C@@H]1O (stereo partly drawn) [ManNAc, N-acetyl-D-mannosamine]",Expression of Hcrt,[1],detected only in a 1.0 mM ManNAc-added culture
same,Expression of an orexin gene (Hcrt),[2],expression of Hcrt which had been recognized in a ManNAc-added section
same,ratio of orexin-positive cells in a neurally differentiated colony,[3],4.9%
